Source: patent US20260078108A1, “SOLID FORMS OF A ROCK INHIBITOR” (REDX PHARMA PLC, priority 2022, published 2026)

Key:
[1] = biological target: ROCK2 (Homo sapiens, UniProt O75116); assay: Activity against kinase ROCK2; assay type: biochemical; conditions: comparison of enantiomers
[2] = biological target: T1, M2 (h) (Homo sapiens, UniProt P08172); assay: CEREP panel M2 (h) antagonist effect, cAMP HTRF; assay type: cell-based; conditions: HCl salt tested; CHO cells, acetylcholine (300 nM)
T1 construct: expressed in transfected cells; host or cells: CHO cells
T1 sequence (P08172 1-466): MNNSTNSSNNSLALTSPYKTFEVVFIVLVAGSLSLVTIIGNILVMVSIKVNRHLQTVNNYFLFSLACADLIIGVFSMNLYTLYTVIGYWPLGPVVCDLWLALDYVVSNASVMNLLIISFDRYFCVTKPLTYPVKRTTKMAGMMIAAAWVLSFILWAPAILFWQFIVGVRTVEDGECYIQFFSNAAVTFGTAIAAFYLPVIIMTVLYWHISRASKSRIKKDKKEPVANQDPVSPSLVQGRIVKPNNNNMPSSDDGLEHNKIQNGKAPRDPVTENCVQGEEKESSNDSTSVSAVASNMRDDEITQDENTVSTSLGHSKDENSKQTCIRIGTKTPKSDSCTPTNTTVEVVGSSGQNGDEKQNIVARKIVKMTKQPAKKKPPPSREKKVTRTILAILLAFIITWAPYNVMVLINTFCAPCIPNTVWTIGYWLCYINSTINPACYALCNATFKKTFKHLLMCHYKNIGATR
Source text: (§1) The use of in vitro pharmacological screening against a diverse range of targets (receptors, ion channels, enzymes and transporters) is used to identify undesirable off-target activity that may cause adverse drug reactions in humans. Screening panels (e.g. SafetyScreen44™ Panel, Eurofins) comprise a selection of off-targets linked with known issues in humans that could hinder or halt the development of drug candidates or market withdrawal if discovered after a drug is approved. The HCl salts of the S enantiomer and the R enantiomer of compound A were tested against a panel of such targets.
(§2) The tests were carried out according to the methods described in the following tables and indicated literature references.

[3] = biological target: T2, Haspin (Homo sapiens, UniProt Q8TF76); assay: Kinase panel 33P-ATP filter assay, Haspin; assay type: biochemical; conditions: HCl salt tested; ATP Conc. 20 μM (Km); read-out: Compound IC50 (nM) Haspin
T2 sequence (Q8TF76 1-798): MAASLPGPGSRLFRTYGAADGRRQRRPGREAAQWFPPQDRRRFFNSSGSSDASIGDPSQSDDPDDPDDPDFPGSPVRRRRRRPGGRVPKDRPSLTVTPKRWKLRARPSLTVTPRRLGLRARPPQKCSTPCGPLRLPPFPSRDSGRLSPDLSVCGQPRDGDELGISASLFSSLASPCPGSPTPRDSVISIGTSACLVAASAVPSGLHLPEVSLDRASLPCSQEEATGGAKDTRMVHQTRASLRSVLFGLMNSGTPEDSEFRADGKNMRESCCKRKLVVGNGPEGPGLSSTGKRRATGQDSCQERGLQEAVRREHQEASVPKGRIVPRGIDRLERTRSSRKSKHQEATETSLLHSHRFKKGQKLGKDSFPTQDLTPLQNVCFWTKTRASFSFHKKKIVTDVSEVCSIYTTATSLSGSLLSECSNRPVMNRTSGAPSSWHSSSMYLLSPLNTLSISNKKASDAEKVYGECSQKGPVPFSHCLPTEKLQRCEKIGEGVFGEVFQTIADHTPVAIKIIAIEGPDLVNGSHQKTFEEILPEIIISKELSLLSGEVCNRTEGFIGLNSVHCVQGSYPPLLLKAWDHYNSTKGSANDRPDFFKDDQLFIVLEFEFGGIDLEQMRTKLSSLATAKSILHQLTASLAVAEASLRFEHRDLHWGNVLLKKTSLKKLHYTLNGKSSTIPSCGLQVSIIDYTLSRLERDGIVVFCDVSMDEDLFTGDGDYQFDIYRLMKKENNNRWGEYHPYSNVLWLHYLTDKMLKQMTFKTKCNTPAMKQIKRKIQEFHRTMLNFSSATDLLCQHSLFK
Procedure: (§3) The HCl salts of S enantiomer and the R enantiomer of compound A were tested against a panel of kinases.
(§4) Compounds were received as powder and resuspended to 10 mM DMSO stock. Compounds were tested in 10-dose IC50 mode with a 3-fold serial dilution starting at 10 μM. Control compound, staurosporine, was tested in 10-dose IC50 mode with 4-fold serial dilution starting at 20 μM.
(§5) Reaction Conditions: Buffer Conditions: 20 mM HEPES ((4-(2-hydroxyethyl)-1-piperazineethanesulfonic acid; pH 7.5), 10 mM MgCl2, 1 mM EGTA (Ethyleneglycol-bis(p-aminoethyl)-N,N,N′,N′-tetraacetic Acid), 0.01% Brij35, 0.02 mg/ml BSA (Bovine serum albumin), 0.1 mM Na3VO4, 2 mM DTT (Dithiothreitol), 1% DMSO. Reaction Procedure: 1. Prepare indicated substrate in freshly prepared reaction buffer. 2. Deliver required cofactors to the substrate solution above. 3. Deliver indicated kinase into the substrate solution and mix gently. 4. Deliver compounds in DMSO into the kinase reaction mixture utilizing acoustic technology (Echo550). 5. Deliver ^33P-ATP (specific activity 0.01 μCi/μl final) into the reaction mixture to initiate the reaction. 6. Incubate kinase reaction for 120 minutes at room temperature. 7. […] Data Analysis: Kinase activity data were expressed as the percent remaining kinase activity in test samples compared to vehicle (dimethyl sulfoxide) reactions. […]

[4] = biological target: PKCeta (Homo sapiens, UniProt P24723); assay: Kinase panel 33P-ATP filter assay, PKCeta; assay type: biochemical; conditions: HCl salt tested; ATP Conc. 15 μM (Km); read-out: Compound IC50 (nM) PKCeta
Procedure: as §3, §4, §5

[5] = biological target: T3, MAO-A (Rattus norvegicus, UniProt P21396); assay: CEREP panel MAO-A (antagonist radioligand); assay type: binding; conditions: HCl salt tested
T3 sequence (P21396 1-526): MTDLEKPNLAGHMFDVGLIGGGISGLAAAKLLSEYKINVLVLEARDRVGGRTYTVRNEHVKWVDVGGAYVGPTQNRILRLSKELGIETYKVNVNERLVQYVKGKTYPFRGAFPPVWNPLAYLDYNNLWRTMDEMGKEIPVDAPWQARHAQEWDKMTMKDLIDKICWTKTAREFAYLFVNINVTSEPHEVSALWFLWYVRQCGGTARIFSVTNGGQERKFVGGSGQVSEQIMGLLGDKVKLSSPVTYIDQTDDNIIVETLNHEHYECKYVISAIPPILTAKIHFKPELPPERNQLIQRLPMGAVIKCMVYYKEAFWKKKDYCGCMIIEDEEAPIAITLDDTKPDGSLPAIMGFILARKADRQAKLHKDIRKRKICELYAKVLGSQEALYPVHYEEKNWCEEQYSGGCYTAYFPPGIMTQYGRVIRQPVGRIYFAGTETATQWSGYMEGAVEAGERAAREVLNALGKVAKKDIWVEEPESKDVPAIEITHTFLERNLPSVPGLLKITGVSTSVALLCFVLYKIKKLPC
Source text: as §1, §2

Sequence of ROCK2 (O75116 whole entry, species assumed): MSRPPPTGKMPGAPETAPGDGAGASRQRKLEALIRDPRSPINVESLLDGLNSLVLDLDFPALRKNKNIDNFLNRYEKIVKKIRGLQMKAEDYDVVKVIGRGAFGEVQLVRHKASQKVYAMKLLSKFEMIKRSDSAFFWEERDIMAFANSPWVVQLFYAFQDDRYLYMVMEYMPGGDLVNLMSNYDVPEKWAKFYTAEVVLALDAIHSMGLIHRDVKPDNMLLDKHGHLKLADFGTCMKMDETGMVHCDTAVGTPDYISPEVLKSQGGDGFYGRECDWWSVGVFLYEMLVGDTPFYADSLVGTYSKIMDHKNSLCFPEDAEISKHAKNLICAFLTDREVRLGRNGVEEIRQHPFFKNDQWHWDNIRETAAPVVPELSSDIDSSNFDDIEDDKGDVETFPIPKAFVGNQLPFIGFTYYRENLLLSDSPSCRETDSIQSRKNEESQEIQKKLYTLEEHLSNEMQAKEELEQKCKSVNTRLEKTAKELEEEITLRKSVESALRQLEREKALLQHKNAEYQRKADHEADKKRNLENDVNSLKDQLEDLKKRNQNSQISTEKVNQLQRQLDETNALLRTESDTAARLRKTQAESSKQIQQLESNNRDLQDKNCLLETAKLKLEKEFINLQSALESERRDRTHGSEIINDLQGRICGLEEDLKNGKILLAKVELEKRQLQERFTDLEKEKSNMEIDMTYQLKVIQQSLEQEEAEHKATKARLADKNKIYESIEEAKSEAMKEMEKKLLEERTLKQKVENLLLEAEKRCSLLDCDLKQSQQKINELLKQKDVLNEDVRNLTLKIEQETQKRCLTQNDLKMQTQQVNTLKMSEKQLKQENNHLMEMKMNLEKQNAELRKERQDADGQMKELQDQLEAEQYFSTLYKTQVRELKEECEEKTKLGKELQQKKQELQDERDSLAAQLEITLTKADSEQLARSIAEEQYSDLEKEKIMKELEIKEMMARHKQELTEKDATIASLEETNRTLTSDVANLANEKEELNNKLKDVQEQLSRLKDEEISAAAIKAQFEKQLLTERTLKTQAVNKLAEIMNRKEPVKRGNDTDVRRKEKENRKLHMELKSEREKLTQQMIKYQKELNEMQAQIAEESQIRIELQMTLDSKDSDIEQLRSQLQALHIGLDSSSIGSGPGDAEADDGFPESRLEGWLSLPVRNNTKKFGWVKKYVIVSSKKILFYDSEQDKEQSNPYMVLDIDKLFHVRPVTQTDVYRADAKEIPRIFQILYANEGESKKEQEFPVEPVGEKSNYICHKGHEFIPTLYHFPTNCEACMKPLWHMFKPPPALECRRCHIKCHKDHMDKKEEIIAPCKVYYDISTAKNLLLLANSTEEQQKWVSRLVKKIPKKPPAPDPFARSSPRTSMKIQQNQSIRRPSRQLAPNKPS
Sequence of PKCeta (P24723 whole entry): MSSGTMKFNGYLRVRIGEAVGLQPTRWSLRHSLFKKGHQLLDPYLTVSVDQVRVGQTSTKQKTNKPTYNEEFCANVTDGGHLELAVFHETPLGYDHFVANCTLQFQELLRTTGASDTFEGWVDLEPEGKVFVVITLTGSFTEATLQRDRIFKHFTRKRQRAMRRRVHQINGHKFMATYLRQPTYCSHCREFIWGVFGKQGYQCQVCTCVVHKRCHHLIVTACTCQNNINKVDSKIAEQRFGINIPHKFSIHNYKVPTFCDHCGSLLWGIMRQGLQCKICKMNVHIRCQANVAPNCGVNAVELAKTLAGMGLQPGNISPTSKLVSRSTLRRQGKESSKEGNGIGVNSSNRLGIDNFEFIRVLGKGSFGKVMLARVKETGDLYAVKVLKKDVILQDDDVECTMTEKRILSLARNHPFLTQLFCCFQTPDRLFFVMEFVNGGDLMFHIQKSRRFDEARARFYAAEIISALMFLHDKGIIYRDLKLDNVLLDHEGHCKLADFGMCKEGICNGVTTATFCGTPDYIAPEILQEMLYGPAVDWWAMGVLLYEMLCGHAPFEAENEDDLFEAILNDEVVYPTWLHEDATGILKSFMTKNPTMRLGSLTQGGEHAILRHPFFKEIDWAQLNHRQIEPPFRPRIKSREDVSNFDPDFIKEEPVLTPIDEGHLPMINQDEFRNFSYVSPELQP

SMILES: NCc1ccc(C(=O)Nc2ccncc2F)cc1-c1cccc(C(=O)Nc2ccc(SC[C@@H]3CCOC3=O)cc2)c1 [R-enantiomer]
- Difference between activities of S- and R-enantiomer against ROCK2 [1]: no statistically meaningful difference
- IC50 [2]: 6200 nM
- IC50 [3]: 134 nM
- IC50 [4]: < 0.5 nM
- IC50 [5]: 4300 nM

SMILES: NCc1ccc(C(=O)Nc2ccncc2F)cc1-c1cccc(C(=O)Nc2ccc(SC[C@H]3CCOC3=O)cc2)c1 [S-enantiomer]
- Difference between activities of S- and R-enantiomer against ROCK2 [1]: no statistically meaningful difference
- IC50 [2]: > 100000 nM
- IC50 [3]: 297 nM
- IC50 [4]: 0.9 nM
- IC50 [5]: 820 nM
